Earlier results as cited in patent publication US11827443B2, “Aerosol foam dispenser” (The Procter & Gamble Company, priority 2021, dated 2023).

Settings: in water at 20° C.

Row | SMILES | Water solubility at 20° C. (weight percent)
1 | [N-]=[N+]=O [Nitrous oxide] | 0.12 weight percent
2 | COC [Dimethyl ether] | 7% weight percent
3 | CC(C)C [Isobutane] | <0.01% weight percent
4 | [He] [Helium] | <0.01 weight percent
5 | CCCC [Butane] | <0.01% weight percent
6 | O=C=O [Carbon dioxide] | 0.8% weight percent
